Assay type in all cases: cell-based
For assay [1], the target named is T1, hGIPR (Homo sapiens, UniProt P48546).
T1 sequence (P48546 22-466): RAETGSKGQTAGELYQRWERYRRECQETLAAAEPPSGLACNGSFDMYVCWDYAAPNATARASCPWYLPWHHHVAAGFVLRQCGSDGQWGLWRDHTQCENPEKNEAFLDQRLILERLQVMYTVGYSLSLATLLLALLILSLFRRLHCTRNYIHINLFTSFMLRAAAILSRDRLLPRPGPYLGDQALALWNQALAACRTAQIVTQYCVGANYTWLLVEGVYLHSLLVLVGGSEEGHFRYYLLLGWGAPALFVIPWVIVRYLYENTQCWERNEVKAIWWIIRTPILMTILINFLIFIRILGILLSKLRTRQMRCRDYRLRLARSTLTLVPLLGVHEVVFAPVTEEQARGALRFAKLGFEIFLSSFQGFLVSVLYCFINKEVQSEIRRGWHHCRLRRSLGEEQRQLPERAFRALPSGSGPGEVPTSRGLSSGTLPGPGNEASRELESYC
Put plainly: Functional cAMP activity in the presence of 1% HSA. The settings on record: read-out: cAMP Rel EC50, hGIPR.

The target in assay [2] is T2, hGLP-1R (Homo sapiens, UniProt P43220). Put plainly: Functional cAMP activity in the presence of 1% HSA. To be noted: read-out: cAMP Rel EC50, hGLP-1R.
T2 sequence (P43220 24-463): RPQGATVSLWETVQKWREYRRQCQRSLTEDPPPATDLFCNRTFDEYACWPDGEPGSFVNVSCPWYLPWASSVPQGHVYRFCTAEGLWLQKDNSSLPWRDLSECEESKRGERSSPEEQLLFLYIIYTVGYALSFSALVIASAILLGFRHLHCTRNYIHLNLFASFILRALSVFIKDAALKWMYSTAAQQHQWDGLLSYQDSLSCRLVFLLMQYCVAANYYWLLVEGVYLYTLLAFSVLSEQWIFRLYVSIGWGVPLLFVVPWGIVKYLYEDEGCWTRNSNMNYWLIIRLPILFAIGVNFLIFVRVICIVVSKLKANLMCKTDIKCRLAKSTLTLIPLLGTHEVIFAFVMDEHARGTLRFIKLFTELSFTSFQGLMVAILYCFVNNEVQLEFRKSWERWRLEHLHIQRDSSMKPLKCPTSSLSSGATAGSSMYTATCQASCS
A further assay addresses human GcgR (Homo sapiens, UniProt P47871). Put plainly: Functional cAMP activity in the presence of 1% HSA. To be noted: read-out: cAMP Rel EC50, hGcgR.
The target in assay [3] is T1, hGIPR. Put plainly: Functional cAMP activation in the presence of 0.1% casein (no HSA). The settings on record: in the presence of 0.1% casein (no HSA); geometric mean; read-out: Relative cAMP EC50, hGIPR.
Assay [4] has as its target T2, hGLP-1R. Described as above. To be noted: in the presence of 0.1% casein (no HSA); geometric mean; read-out: Relative cAMP EC50, hGLP-1R.
Procedure: After a 30-minute incubation at 37° C., the resulting increase in intracellular cAMP is quantitatively determined using the CisBio CAMP Dynamic 2 HTRF Assay Kit (62AM4PEJ). Briefly, cAMP levels within the cell are detected by adding the cAMP-d2 conjugate in cell lysis buffer followed by the antibody anti-cAMP-Eu^3+-Cryptate, also in cell lysis buffer.
Intracellular cAMP levels are determined by extrapolation using a standard curve. Dose response curves of compounds are plotted as the percentage of stimulation normalized to minimum (buffer only) and maximum (maximum concentration of each control ligand) values and analyzed using a four parameter non-linear regression fit with a variable slope (Genedata Screener 13). EC50 is the concentration of compound causing half-maximal simulation in a dose response curve. Each relative EC50 value for the Geometric mean calculation is determined from a curve fitting.
For a further assay, the target named is hGcgR (Homo sapiens, UniProt P47871). The assay is described as above. To be noted: in the presence of 0.1% casein (no HSA); geometric mean; read-out: Relative cAMP EC50, hGcgR.
hGcgR, sequence (P47871 26-477): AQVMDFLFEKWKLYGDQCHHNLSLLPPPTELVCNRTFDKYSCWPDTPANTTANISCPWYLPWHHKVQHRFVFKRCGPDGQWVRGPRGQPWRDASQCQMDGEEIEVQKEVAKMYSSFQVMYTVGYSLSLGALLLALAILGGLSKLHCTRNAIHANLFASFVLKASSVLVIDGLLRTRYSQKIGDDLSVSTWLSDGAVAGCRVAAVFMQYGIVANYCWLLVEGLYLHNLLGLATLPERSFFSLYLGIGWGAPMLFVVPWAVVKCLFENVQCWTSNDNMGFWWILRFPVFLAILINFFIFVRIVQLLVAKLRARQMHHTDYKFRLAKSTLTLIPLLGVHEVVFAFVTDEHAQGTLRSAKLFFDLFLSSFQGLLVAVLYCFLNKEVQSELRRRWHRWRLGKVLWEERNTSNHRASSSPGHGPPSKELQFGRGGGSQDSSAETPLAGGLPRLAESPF
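Wherever Relative cAMP EC50, hGIPR is given: intracellular cAMP rise after 30 min at 37 °C read by HTRF against a standard curve, scaled between buffer alone (0%) and top control ligand concentration (100%), four-parameter fit.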
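Wherever Relative cAMP EC50, hGLP-1R is given: intracellular cAMP rise after 30 min at 37 °C read by HTRF, normalized between buffer only (0%) and maximal control ligand (100%), four-parameter variable-slope fit.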
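Wherever Relative cAMP EC50, hGcgR is given: intracellular cAMP rise after 30 min at 37 °C, read by HTRF against a cAMP standard curve, scaled from buffer only (0%) to maximal control ligand response (100%).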

human GcgR, sequence (P47871 26-477): as above

For orientation: EC50 means the concentration at which the effect is half-maximal. For `CC[C@H](C)[C@H](NC(=O)[C@H](Cc1ccccc1)NC(=O)[C@H](C)NC(=O)C(C)(C)NC(=O)[C@H](CCC(N)=O)NC(=O)[C@H](C)NC(=O)[C@H](CCCCNC(=O)COCCOCCNC(=O)CC[C@H](NC(=O)CCCCCCCCCCCCCCCCCCC(=O)O)C(=O)O)NC(=O)[C@H](CCCCN)NC(=O)[C@H](CC(=O)O)NC(=O)[C@H](CC(C)C)NC(=O)[C@](C)(CC(C)C)NC(=O)[C@H](CCCN)NC(=O)[C@H](CO)NC(=O)[C@H](Cc1ccccc1)NC(=O)[C@H](CC(=O)O)NC(=O)[C@H](CO)NC(=O)[C@@H](NC(=O)[C@H](Cc1ccccc1)NC(=O)[C@@H](NC(=O)CNC(=O)[C@H](CCC(N)=O)NC(=O)C(C)(C)NC(=O)[C@@H](N)Cc1ccc(O)cc1)[C@@H](C)O)[C@@H](C)O)C(=O)N[C@@H](CCC(=O)O)C(=O)N[C@@H](Cc1c[nH]c2ccccc12)C(=O)N[C@@H](CC(C)C)C(=O)N[C@@H](CC(C)C)C(=O)N[C@@H](CCC(=O)O)C(=O)NCC(=O)NCC(=O)N1CCC[C@H]1C(=O)N[C@@H](CO)C(=O)N[C@@H](CO)C(=O)NCC(=O)N[C@@H](C)C(=O)N1CCC[C@H]1C(=O)N1CCC[C@H]1C(=O)N1C[C@H](O)C[C@H]1C(=O)N[C@@H](CO)C(=O)NCC(=O)N[C@@H](CCC(=O)O)C(N)=O` [Example 105], the EC50 was 72.5 nM on hGIPR [1]; 768 nM on hGLP-1R [2]; 2790 nM at human GcgR; 0.269 nM on hGIPR [3]; 2.86 nM on hGLP-1R [4]; 12.5 nM on hGcgR.
For the compound `CC[C@H](C)[C@H](NC(=O)[C@H](Cc1ccccc1)NC(=O)[C@H](C)NC(=O)C(C)(C)NC(=O)[C@H](CCC(N)=O)NC(=O)[C@H](C)NC(=O)[C@H](CCCCNC(=O)COCCOCCNC(=O)COCCOCCNC(=O)CC[C@H](NC(=O)CCCCCCCCCCCCCCCCC(=O)O)C(=O)O)NC(=O)[C@H](CCCCN)NC(=O)[C@H](CC(=O)O)NC(=O)[C@H](CC(C)C)NC(=O)[C@](C)(CC(C)C)NC(=O)[C@H](CCCN)NC(=O)[C@H](CO)NC(=O)[C@H](Cc1ccccc1)NC(=O)[C@H](CC(=O)O)NC(=O)[C@H](CO)NC(=O)[C@@H](NC(=O)[C@H](Cc1ccccc1)NC(=O)[C@@H](NC(=O)CNC(=O)[C@H](CCC(N)=O)NC(=O)C(C)(C)NC(=O)[C@@H](N)Cc1ccc(O)cc1)[C@@H](C)O)[C@@H](C)O)C(=O)N[C@@H](CCC(=O)O)C(=O)N[C@@H](Cc1ccc(O)cc1)C(=O)N[C@@H](CC(C)C)C(=O)N[C@@H](CC(C)C)C(=O)N[C@@H](CCC(=O)O)C(=O)N[C@H](C)C(=O)NCC(=O)N1CCC[C@H]1C(=O)N[C@@H](CO)C(=O)N[C@@H](CO)C(=O)NCC(=O)N[C@@H](C)C(=O)N1CCC[C@H]1C(=O)N1CCC[C@H]1C(=O)N1CCC[C@H]1C(=O)N[C@@H](CO)C(=O)NCC(=O)N[C@@H](CCC(=O)O)C(N)=O` [Example 128], the EC50 worked out at 24.3 nM on hGIPR [1]; 679 nM at hGLP-1R [2]; 1090 nM at human GcgR; 0.307 nM at hGIPR [3]; 3.5 nM on hGLP-1R [4]; 6.76 nM on hGcgR.
As to `CC[C@H](C)[C@H](NC(=O)[C@H](Cc1ccccc1)NC(=O)[C@H](C)NC(=O)C(C)(C)NC(=O)[C@H](CCC(N)=O)NC(=O)[C@H](C)NC(=O)[C@H](CCCCNC(=O)CC[C@H](NC(=O)CC[C@H](NC(=O)CCCCCCCCCCCCCCCCC(=O)O)C(=O)O)C(=O)O)NC(=O)[C@H](CCCCN)NC(=O)[C@H](CC(=O)O)NC(=O)[C@H](CC(C)C)NC(=O)[C@](C)(CC(C)C)NC(=O)[C@H](CCCN)NC(=O)[C@H](CO)NC(=O)[C@H](Cc1ccccc1)NC(=O)[C@H](CC(=O)O)NC(=O)[C@H](CO)NC(=O)[C@@H](NC(=O)[C@H](Cc1ccccc1)NC(=O)[C@@H](NC(=O)CNC(=O)[C@H](CCC(N)=O)NC(=O)C(C)(C)NC(=O)[C@@H](N)Cc1ccc(O)cc1)[C@@H](C)O)[C@@H](C)O)C(=O)N[C@@H](CCC(=O)O)C(=O)N[C@@H](Cc1ccc(O)cc1)C(=O)N[C@@H](CC(C)C)C(=O)N[C@@H](CC(C)C)C(=O)N[C@@H](CCC(=O)O)C(=O)NCC(=O)NCC(=O)N1CCC[C@H]1C(=O)N[C@@H](CO)C(=O)N[C@@H](CO)C(=O)NCC(=O)N[C@@H](C)C(=O)N1CCC[C@H]1C(=O)N1CCC[C@H]1C(=O)N1CCC[C@H]1C(=O)N[C@@H](CO)C(=O)NCC(=O)N[C@@H](CO)C(N)=O` [Example 199], the EC50 at hGIPR [1] was determined as 41.6 nM; at hGLP-1R [2] it was 1060 nM; at human GcgR, 1000 nM; on hGIPR [3], 0.232 nM; at hGLP-1R [4], 4.91 nM; at hGcgR, 5.8 nM.
As to `CC[C@H](C)[C@H](NC(=O)[C@H](Cc1ccccc1)NC(=O)[C@H](C)NC(=O)C(C)(C)NC(=O)[C@H](CCC(N)=O)NC(=O)[C@H](C)NC(=O)[C@H](CCCCNC(=O)COCCOCCNC(=O)CC[C@H](NC(=O)CCCCCCCCCCCCCCCCC(=O)O)C(=O)O)NC(=O)[C@H](CCCCN)NC(=O)[C@H](CC(=O)O)NC(=O)[C@H](CC(C)C)NC(=O)[C@](C)(CC(C)C)NC(=O)[C@H](CCCN)NC(=O)[C@H](CO)NC(=O)[C@H](Cc1ccccc1)NC(=O)[C@H](CC(=O)O)NC(=O)[C@H](CO)NC(=O)[C@@H](NC(=O)[C@H](Cc1ccccc1)NC(=O)[C@@H](NC(=O)CNC(=O)[C@H](CCC(N)=O)NC(=O)C(C)(C)NC(=O)[C@@H](N)Cc1ccc(O)cc1)[C@@H](C)O)[C@@H](C)O)C(=O)N[C@@H](CCC(=O)O)C(=O)N[C@@H](Cc1ccc(O)cc1)C(=O)N[C@@H](CC(C)C)C(=O)N[C@@H](CC(C)C)C(=O)N[C@@H](CCC(=O)O)C(=O)N[C@H](C)C(=O)NCC(=O)N1CCC[C@H]1C(=O)N[C@@H](CO)C(=O)N[C@@H](CO)C(=O)NCC(=O)N[C@@H](C)C(=O)N1CCC[C@H]1C(=O)N1CCC[C@H]1C(=O)N1CCC[C@H]1C(=O)N[C@@H](CCC(=O)O)C(=O)NCC(=O)N[C@@H](CCC(=O)O)C(N)=O` [Example 206], the 50% effective concentration (EC50) on hGIPR [1] worked out at 38.8 nM; at hGLP-1R [2], 372 nM; at human GcgR it was 545 nM; on hGIPR [3], 0.224 nM; on hGLP-1R [4], 2.77 nM; at hGcgR it was 2.2 nM.
As for `CC[C@H](C)[C@H](NC(=O)[C@H](Cc1ccccc1)NC(=O)[C@H](C)NC(=O)C(C)(C)NC(=O)[C@H](CCC(N)=O)NC(=O)[C@H](C)NC(=O)[C@H](CCCCNC(=O)COCCOCCNC(=O)CC[C@H](NC(=O)CCCCCCCCCCCCCCCCC(=O)O)C(=O)O)NC(=O)[C@H](CCCCN)NC(=O)[C@H](CC(=O)O)NC(=O)[C@H](CC(C)C)NC(=O)[C@](C)(CC(C)C)NC(=O)[C@H](CCCN)NC(=O)[C@H](CO)NC(=O)[C@H](Cc1ccccc1)NC(=O)[C@H](CC(=O)O)NC(=O)[C@H](CO)NC(=O)[C@@H](NC(=O)[C@H](Cc1ccccc1)NC(=O)[C@@H](NC(=O)CNC(=O)[C@H](CCC(N)=O)NC(=O)C(C)(C)NC(=O)[C@@H](N)Cc1ccc(O)cc1)[C@@H](C)O)[C@@H](C)O)C(=O)N[C@@H](CCC(=O)O)C(=O)N[C@@H](Cc1ccc(O)cc1)C(=O)N[C@@H](CC(C)C)C(=O)N[C@@H](CC(C)C)C(=O)N[C@@H](CCC(=O)O)C(=O)N[C@H](C)C(=O)NCC(=O)N[C@@H](Cc1ccncc1)C(=O)N[C@@H](CO)C(=O)N[C@@H](CO)C(=O)NCC(=O)N[C@@H](C)C(=O)N1CCC[C@H]1C(=O)N1CCC[C@H]1C(=O)N1CCC[C@H]1C(=O)N[C@@H](CO)C(=O)NCC(=O)N[C@@H](CCC(=O)O)C(N)=O` [Example 252], the EC50 came out at 24.8 nM at hGIPR [1]; 504 nM at hGLP-1R [2]; 528 nM at human GcgR; 0.147 nM on hGIPR [3]; 3.54 nM at hGLP-1R [4]; 2.61 nM on hGcgR.

For the origin of these results see patent publication US20240270821A1, “GIP/GLP1/GCG TRI-RECEPTOR AGONISTS AND USES THEREOF” (priority 2023, published 2024).
